Counter-ions that a name gives are not always drawn. Like-named read-outs stand apart in the source and are kept apart here.
Legend:
gastric acid secretion = assay: Acute Gastric Fistula Rat Test (inhibition of gastric acid secretion, Total Acid Output); assay type: in vivo, Female Sprague-Dawley rats; details: 1 h, @ 20 mg/kg i.d. (intraduodenal), collection at one hour, read-out: % Inhibition of TAO (Total Acid Output)
Description: The compounds of the invention are useful for inhibition of gastric acid secretion as measured by the following test. Female Sprague-Dawley rats are fasted twenty-four hours before testing and are given water ad libidum while being kept in individual cages. On the day of testing, the rats are weighed and are selected so that the rats in each test weigh within a range of ±20 grams.
Surgery is carried out under light ether anesthesia. As soon as the rat is anesthetized its teeth are removed and a mid-line incision is made on the abdomen about 11/2 inches in length and the stomach and duodenum are exposed. If at this point the stomach is filled with food or fecal material, the rat is not used. If the condition of the stomach is acceptable, a purse string stitch is placed on the fundic portion of the stomach with a suture, taking care not to pierce any blood vessels in the area. A small nick is then made into the stomach in the center of the purse string, and a cannula, consisting of a small vinyl tube with a flange on one end, is put into the stomach, and the purse string stitch is closed tightly around the flange. The test compound is administered intraduodonally (i.d.) immediately after surgery in a volume of 0.5 ml/100 grams rat. Control rats receive the test vehicle, 0.5% aqueous methyl cellulose.
After the surgery and after administration of the test compound, the abdominal wall and skin are closed simultaneously with three or four 10 mm wound clips and a collecting tube is placed on the cannula. Each rat is then placed in a box in which a longitudinal slit has been made to allow the cannula to hang freely and to allow the rat to move about unencumbered. After the rat has been allowed to stabilize for thirty minutes, the collection tube on the cannula is discarded and replaced with a clean tube to receive the gastric juice. Collections are made at one hour.
The sample of gastric contents collected is drained into a centrifuge tube and centrifuged to pack down the sediment. The volume is read and a 1 ml aliquot of the supernatant is put into a beaker containing 10 ml distilled water and is titrated to pH 7 using 0.01 N sodium hydroxide. Results are determined for Volume, Titratable Acid and Total Acid Output, where Volume equals total ml of gastric juice minus sediment; Titratable Acid (meq/1) equals amount of 0.01 N sodium hydroxide needed to titrate the acid to pH 7; and Total Acid Output equals Titratable Acid times Volume. Results are reported as % inhibition of Total Acid Output (TAO) for a dose of 20 mg/kg i.d. of the compound of formula (I) or (II). Particularly useful are compounds having significant inhibition of TAO at a dose of 20 mg/kg.

[1] = tested on: depressant effects of tetrabenazine (TBZ); assay: tetrabenazine (TBZ) antagonism assay for antidepressant agents; assay type: in vivo; details: Mus musculus, ip, 0.5 h, mice, test compound i.p. 30 minutes prior to 32 mg/kg i.p. TBZ
Description: This is the "classical" tetrabenazine antagonism assay described in U.S. Pat. No. 3,787,577. Mice are injected with a test compound 30 minutes prior to the injection of 32 mg/kg i.p. of TBZ, a drug which decreases normal exploratory activity and induces ptosis. After 30 minutes, the mice are tested for two parameters: the presence of normal exploratory activity (EA) and reversal of ptosis (Pt). A control group of mice is given only 32 mg/kg i.p. of TBZ.

[2] = normal exploratory activity, read-out: TBZ ED50 EA (exploratory activity)
[3] = reversal of ptosis, read-out: TBZ ED50 Pt (reversal of ptosis)

| SMILES | inhibition in vivo at 20 mg/kg (gastric acid secretion) [%] | ED50 [1, 2] [mg/kg] | ED50 [1, 3] [mg/kg] |
| --- | --- | --- | --- |
| Cn1ccc2c1C1(C)CCCN1CC2 (stereo not shown) [Example 16, 1,9a-Dimethyl-4,5,7,8,9,9a-hexahydro-1H-pyrrolo[3,2-g]indolizine cyclohexanesulfamate] | 86 | – | – |
| c1csc([C@@H]2CN3CCC[C@@H]3c3ccsc32)c1 (relative stereo) [20 (2nd), 4,5,7,8,9,9a-beta-hexahydro-4-alpha-(2-thienyl)thieno[2,3-g]indolizine] | 41 | ~24 | ~30 |
| CC12CCCN1CCc1[nH]ccc12 (stereo not shown) [Example 5, 4,5,7,8,9,9a-Hexahydro-9a-methyl-3H-pyrrolo[2,3-g]-indolizine E-(2-)butenedioate(1:1)] | 66 | – | – |
| C[C@@]12CCCN1C[C@@H](c1ccccc1)c1sccc12 (relative stereo) [Example 18, 4,5,7,8,9,9a-Hexahydro-9a-alpha-methyl-4-alpha-phenylthieno-[2,3-g]indolizine perchlorate (1:1)] | 100 | – | – |
| CC12CCCN1CCc1c2ccn1-c1ccccc1 (stereo not shown) [Example 10, 4,5,7,8,9,9a-Hexahydro-9a-methyl-3-phenyl-3H-pyrrolo[2,3-g]indolizine] | 82 | – | – |
| CC12CCCN1CCc1c2ccn1Cc1ccccc1Cl (stereo not shown) [Example 4, 3-(2-Chlorobenzyl)-4,5,7,8,9,9a-hexahydro-9a-methyl-3H-pyrrolo[2,3-g]indolizine] | 78 | – | – |
| Cn1ccc2c1CCN1C(c3ccc(Cl)cc3)CCC21C (stereo not shown) [Example 12, 7-(4-Chlorophenyl)-4,5,7,8,9,9a-hexahydro-3,9a-dimethyl-3H-pyrrolo[2,3-g]indolizine (E)-2-butenedioate (1:7) hydrate (1:2)] | 37 | – | – |
| Cn1ccc2c1[C@H](c1ccccc1)CN1CCC[C@@H]21 (relative stereo) [17 (1st), 4,5,7,8,9,9a-alpha-Hexahydro-3-methyl-4-alpha-phenyl-3H-pyrrolo[2,3-g]indolizine] | 90 | – | – |
| c1csc([C@@H]2CN3CCC[C@H]3c3ccsc32)c1 (relative stereo) [20 (1st), 4,5,7,8,9,9a-alpha-Hexahydro-4-alpha-(2-thienyl)thieno[2,3-g]indolizine] | 47 | – | – |
| c1ccc([C@@H]2CN3CCC[C@@H]3c3ccsc32)cc1 (relative stereo) [19 (2nd), 4,5,7,8,9,9a-beta-hexahydro-4-alpha-phenylthieno[2,3-g]indolizine] | 98 | – | – |
| Cn1ccc2c1CCN1CCCC21c1ccccc1 (stereo not shown) [Example 7, 4,5,7,8,9,9a-Hexahydro-3-methyl-9a-phenyl-3H-pyrrolo[2,3-g]indolizine] | 86 | – | – |
| c1ccc([C@@H]2CN3CCC[C@H]3c3ccsc32)cc1 (relative stereo) [19 (1st), 4,5,7,8,9,9a-alpha-Hexahydro-4-alpha-phenylthieno[2,3-g]indolizine] | 98 | – | – |
| Cn1ccc2c1CCN1CCCC21C (stereo not shown) [Example 13, 3,9a-Dimethyl-4,5,7,8,9,9a-hexahydro-3H-pyrrolo[2,3-]indolizine hydrochloride] | 74 | – | – |
| c1ccc([C@@H]2CN3CCC[C@H]3c3sccc32)cc1 (relative stereo) [19 (3rd), 4,5,7,8,9,9a-alpha-hexahydro-4-alpha-phenylthieno[3,2-g]indolizine] | 88 | – | – |
| Cn1ccc2c1[C@H](c1ccccc1)CN1CCC[C@H]21 (relative stereo) [17 (2nd), 4,5,7,8,9,9a-beta-Hexahydro-3-methyl-4-alpha-phenyl-3H-pyrrolo[2,3-g]indolizine] | 88 | 2.4 | ~0.75 |

Reference: patent US4572911A, “Hexahydroindolinzine compounds, pharmaceutical compositions and methods and intermediates” (priority 1984, dated 1986)
